Results from patent EP0470795A1, “Process for the manufacture of nitriles” (ZENECA LIMITED, priority 1990, dated 1992).

System: angiotensin II-induced pressor responses
Assay: Test C: antagonism of angiotensin II-induced pressor responses in terminally-anaesthetised or conscious rats
Format: in vivo
Conditions: Rattus norvegicus, iv; i.v. administration; read-out: ED₅₀
Procedure: This in vivo test involves using terminally-anaesthetised or conscious rats in which an arterial catheter has been implanted under anaesthesia for the measurement of changes in blood pressure. The AII antagonistic effects of the test compound following oral or parenteral administration, are assessed against angiotensin II-induced pressor responses. To ensure that the effect is specific, the effect of the test compound on vasopressin-induced pressor responses may also be determined in the same preparation.

Cc1cc(OCc2ccc(-c3ccccc3-c3nnn[nH]3)cc2)c2ccccc2n1.Cl [2-methyl-4-[(2′-(1H-tetrazol-5-yl)biphenyl-4-yl)methoxy]quinoline hydrochloride]
ED50: 0.5 mg/kg
